Assay results taken from PubChem BioAssay AID1417 (Emory University Molecular Libraries Screening Center, 2008).

Biological target: Induced myeloid leukemia cell differentiation protein Mcl-1 (Homo sapiens) (UniProt Q07820)
Test: Mcl-1/Noxa binding inhibitor potency, dose response, biochemical, TR-FRET (AID 1417)
Conditions: Mcl-1/Noxa peptide interaction, cell-free TR-FRET (terbium/rhodamine), 2 h; measured here: absolute IC50

Sequence of Induced myeloid leukemia cell differentiation protein Mcl-1 (Homo sapiens) (Q07820 whole entry, looked up): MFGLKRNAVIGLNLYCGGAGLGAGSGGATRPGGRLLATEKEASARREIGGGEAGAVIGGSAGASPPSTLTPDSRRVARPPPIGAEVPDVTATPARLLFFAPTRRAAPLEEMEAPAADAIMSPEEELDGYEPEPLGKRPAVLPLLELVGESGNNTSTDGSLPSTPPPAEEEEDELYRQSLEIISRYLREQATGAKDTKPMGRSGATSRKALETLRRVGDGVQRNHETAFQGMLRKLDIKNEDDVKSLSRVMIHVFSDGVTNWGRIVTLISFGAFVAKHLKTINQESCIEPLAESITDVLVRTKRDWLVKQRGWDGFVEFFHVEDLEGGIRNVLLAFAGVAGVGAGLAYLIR

Row | Structure (SMILES) | IC50
1 | COc1cnn(-c2ccc(Br)cc2)c(=O)c1SCc1ccccc1 | > 54000 nM
2 | CCOc1ccccc1NC(=O)/C=C/C(N)=O | > 54000 nM
3 | O=C(Nc1ccc2nc(-c3ccc4nc[nH]c4c3)[nH]c2c1)c1cccs1 | 2700 nM
4 | CC(C)CC1NC(=O)N(CC(=O)N2c3ccccc3NC(=O)C2(C)C)C1=O (configuration not stated) | > 54000 nM
5 | Oc1ccc(Br)cc1-c1cc(-c2ccc(Cl)cc2)n[nH]1 | 1680 nM
6 | O=c1[nH]c(C(Cl)Cl)nc2sc3c(c12)CCN(Cc1ccccc1)C3 | > 54000 nM
7 | O=S(=O)(Cc1cc(Cl)nc(-c2ccncc2)n1)c1ccccc1 | 24800 nM
8 | O=C(O)c1ccccc1/C=N/NC(=O)c1cc(-c2ccco2)nc2ccccc12 | < 400 nM
9 | O=C(O)c1cc(N/N=C/c2ccc(N3CCOCC3)s2)ccc1Cl | 1080 nM
10 | COc1ccc(OC)c2c1C(=O)C(Cl)=C(Cl)C2=O | < 400 nM
11 | CC(C)c1ccc(S(=O)(=O)/N=C2/C=C(Sc3ncn[nH]3)C(=O)c3ccccc32)cc1 | < 400 nM
12 | Cc1cc(/C=C2/C(=O)NN(c3ccccc3)C2=O)c(C)n1-c1cccc(O)c1 | 3250 nM
13 | Cn1c(=O)c2c(nc(NCc3ccco3)n2CC(O)COc2ccccc2)n(C)c1=O (configuration not stated) | > 54000 nM
14 | O=C1/C(=C/c2ccc(O)c(O)c2)Oc2cc(O)ccc21 | 1160 nM
15 | Oc1[nH]c(=S)sc1/C=C1\C(c2ccccc2)=Nc2ccccc21 | 8660 nM
16 | CCOC(=O)/C=C(\C)Sc1cc(O)c2ccccc2c1O | < 400 nM
17 | COc1ccccc1/C=c1\sc2nc(-c3ccco3)nn2c1=O | 8180 nM
18 | Cc1ccc(/C=C/C(=O)Nc2ccc(N(C)C)cc2)o1 | < 400 nM
19 | COc1cc2cc3c(N)c(C(=O)Nc4sc(C)c(C)c4C#N)sc3nc2cc1OC | 1070 nM
20 | CC(=O)Nc1ccc(-c2csc(NC(=O)C3CC(=O)N(c4ccc5c(c4)OCCO5)C3)n2)cc1 (configuration not stated) | 3250 nM
21 | Oc1nc(Nc2ccc(F)cc2)sc1/C=C1\C=Nc2ccccc21 | 4320 nM
22 | O=C(/C=C/c1ccc(Cl)c([N+](=O)[O-])c1)Nc1ccc(N2CCCC2)cc1 | 8300 nM

Row | Structure (SMILES) | IC50
23 | Cc1ccc(N2C(=O)NC(=O)/C(=C/c3cnc(-c4ccccc4)nc3)C2=O)cc1C | 16300 nM
24 | O=C(O)c1ccc(N/N=C/c2ccc(-c3cc(Cl)ccc3Cl)o2)cc1 | 1840 nM
25 | CCOc1ccc2nc(NC(=O)c3cccc(-c4cc5ccccc5oc4=O)c3)sc2c1 | 3750 nM
26 | COc1ccc(N2CCC(CNC(=O)Nc3ccc(OC)cc3OC)C2)cc1 (configuration not stated) | 1240 nM
27 | Cc1cc(C)n2c(SC/C(O)=C(\C#N)c3nc4ccccc4[nH]3)nnc2n1 | < 400 nM
28 | CCCOc1ncnc2c1[nH]c1ccccc12 | > 54000 nM
29 | CN(C)c1ccc(NC(=O)CCCc2ccccc2)cc1 | > 54000 nM
30 | S=c1[nH]nc(-c2cc(-c3ccccc3)n[nH]2)n1/N=C/C(Br)=C/c1ccccc1 | 7380 nM
31 | COc1ccc2c3c(cccc13)N(C)N=C2C | 931 nM
32 | CC(=O)N(C1=C(Cl)C(=O)c2ccccc2C1=O)C1CCCCC1 | < 400 nM
33 | O=C(O)c1cccc(NC2=C(Cl)C(=O)c3ccccc3C2=O)c1 | 3790 nM
34 | Oc1ccc(/C=N/N=C(c2ccccc2)c2ccccc2)c(O)c1O | < 400 nM
35 | CCOc1ccc2nc(N3C(=O)/C(=C/c4ccc(Cl)cc4)NC3=S)sc2c1 | 1550 nM
36 | COC(=O)c1c(NC(=O)Cc2cccs2)sc2c1CCCC2 | 8950 nM
37 | O=C1c2ccccc2C(=O)N1/N=C/c1ccc(O)c(O)c1O | < 400 nM
38 | COc1ccc2nc(S(=O)Cc3ncc(C)c(OC)c3C)[nH]c2c1 (configuration not stated) | < 400 nM
39 | O=C1/C(=C/c2ccco2)SC(=S)N1c1cccnc1 | > 54000 nM
40 | Cc1ccc(N=Nc2ccc(O)c(/C=N\NC(=O)c3ccc(N)cc3)c2)cc1C | 2240 nM
41 | CCN1c2ccccc2N(C)C1(C)c1ccccc1 (configuration not stated) | 5110 nM
42 | CC1=NN(c2ccccc2)C(=O)/C1=C/c1c(O)n(-c2ccc(F)c(Cl)c2)[nH]c1=O | 4790 nM
43 | O=c1ccc2[n+]([O-])c3ccc(O)cc3oc-2c1 | > 54000 nM
44 | N#CC(C#N)=NNc1ccc(S(N)(=O)=O)cc1 | 1910 nM

Row | Structure (SMILES) | IC50
45 | COc1ccc(/C=C2/C(=O)N(c3nc4ccccc4s3)N=C2CSc2ccc(Cl)cc2)cc1 | < 400 nM
46 | C/C(=N\Nc1cccc(C(=O)O)c1)c1ccc2c(c1)Nc1ccccc1S2 | < 400 nM
47 | Cc1ccc(/C=C2\C(=O)NC(=S)N(c3ccccc3F)C2=O)s1 | 1860 nM
48 | N#C/C(=C/c1ccc(OCc2ccc(C(=O)O)cc2)c(Br)c1)c1cccc(F)c1 | < 400 nM
49 | CC1=Nc2ccc(C)cc2/C1=C/c1c(N)n2c(S(=O)(=O)C(C)C)nsc2nc1=O | > 54000 nM
50 | Cc1nc(S/C(=C\c2ccc(-c3ccc(C(=O)O)c(Cl)c3)o2)C(=O)O)n[nH]1 | < 400 nM
51 | CCN1C(=O)/C(=C/c2ccc3c(c2)CCN3CCCCl)C(=O)NC1=S | 2570 nM
52 | O=C(COC(=O)c1ccc(NS(=O)(=O)c2cccs2)cc1)NCc1ccco1 | 2410 nM
53 | O=[N+]([O-])c1cc([N+](=O)[O-])c2cccnc2c1Oc1ccccc1O | 1270 nM
54 | O=C(O)C1Nc2c(O)cc(Cl)c([N+](=O)[O-])c2C2C=CCC12 (configuration not stated) | < 400 nM
55 | CC1=C(C#N)c2nc(N)c(C#N)c(C)c2/C1=C\c1ccc(-c2ccccc2C(=O)O)o1 | 2980 nM
56 | COc1cccc2c(=O)c3cccc(N)c3[nH]c12 | > 54000 nM
57 | COc1ccc(NC(=O)c2cc(-c3ccco3)nc3ccccc23)cc1S(=O)(=O)N1CCOCC1 | < 400 nM
58 | N=C1/C(=C\c2ccc(-c3cccc(C(=O)O)c3)o2)C(=O)N=C2SC=C(c3ccccc3)N12 | 1300 nM
59 | Cc1c2c(=O)n(-c3nc4ccccc4s3)nc-2cc(O)n1Cc1ccccc1 | 5620 nM
60 | COc1cc(/C=C2/SC(=S)NC2=O)ccc1OS(=O)(=O)c1ccc(C)cc1 | 3260 nM
61 | COc1cc(C2Nc3cccc4cccc(c34)N2)cc(OC)c1OC(C)=O | 2430 nM
62 | O=C(O)c1cccc2c1NC(c1cccc([N+](=O)[O-])c1)C1CC(Sc3ccccc3[N+](=O)[O-])C(Cl)C21 (configuration not stated) | 2250 nM
63 | O=C1/C(=C/C=C/c2ccco2)SC(=S)N1NS(=O)(=O)c1ccccc1 | 1410 nM
64 | COc1ccc(N/C=C2\C(=O)CCc3c2oc2cc(Cl)c(O)c(Cl)c32)cc1 | 5070 nM
65 | CCN(CC)S(=O)(=O)c1ccc(N2CCOCC2)c(NC(=O)c2c3c(nc4ccccc24)CCC3)c1 | 5730 nM
66 | C=C(C)C(=O)Nc1cccc(C2=NOC3(C2)C[C@@H](C(N)=O)N(C(=O)/C=C/C=C/C)C3)c1 (some centres not stated) | < 400 nM

Row | Structure (SMILES) | IC50
67 | O=C(CN1CCN(c2ccc(O)cc2)CC1)Nc1cc([N+](=O)[O-])ccc1Cl | 6480 nM
68 | O=C(O[C@@H]1OC2COC(=O)c3cc(O)c(O)c(O)c3-c3c(cc(O)c(O)c3O)C(=O)O[C@@H]([C@H]1O)[C@@H]2O)c1cc(O)c(O)c(O)c1 | < 400 nM
69 | CN(C)S(=O)(=O)c1cccc(NC(=S)N/N=C/c2ccc(O)c(O)c2O)c1 | < 400 nM
70 | CCOc1ccc(C(Nc2cccnc2)c2cc(Cl)c3cccnc3c2O)cc1 (configuration not stated) | 3250 nM
71 | CC(C)CCC(CCN1CCCC1)c1ccc2c(c1)OCO2 (configuration not stated) | > 54000 nM
72 | O=[N+]([O-])c1cccc(N/N=C/c2cc([N+](=O)[O-])ccc2O)c1 | 428 nM
73 | Cc1ccc(N2NC(=O)/C(=C\c3cc4c(cc3[N+](=O)[O-])OCO4)C2=O)cc1C | 4920 nM
74 | Cn1cnnc1SCC(=O)Nc1sc2c(c1C(N)=O)CCC2 | 1810 nM
75 | CC(/C=N/NC(=O)c1cc(-c2ccc3ccccc3c2)n[nH]1)=C\c1ccco1 | 4910 nM
76 | COC(=O)N/N=C/c1cc(N=Nc2ccccc2Cl)ccc1O | 3740 nM
77 | Nc1ccc(C2=Nc3cccc4cccc(c34)N2)cc1 | < 400 nM
78 | O=C(Nc1nc2ccccc2[nH]1)c1ccc(Cl)c([N+](=O)[O-])c1 | 8740 nM
79 | COc1cc(-c2nnc(SCc3cc(=O)oc4cc(O)c(O)cc34)o2)cc(OC)c1OC | < 400 nM
80 | Cc1ccc2nc(/C(C#N)=C/c3ccc(-c4cccc([N+](=O)[O-])c4)o3)[nH]c2c1 | 1680 nM
81 | Nc1ccc(N2CCCCC2)cc1N1CCCCC1 | > 54000 nM
82 | CN(C)c1ccc(C(CNC(=O)c2ccc(C#N)cc2)c2c[nH]c3ccccc23)cc1 (configuration not stated) | > 54000 nM
83 | O=C(NCCO)Nc1ccc2nc(-c3ccco3)c(-c3ccco3)nc2c1 | < 400 nM
84 | O=C(O)CCn1cc(C=C2C(=O)NC(=S)NC2=O)c(-c2cccc(Br)c2)n1 | 2180 nM
85 | O=C(O)c1cccc(-c2ccc(/C=c3/sc4nc5ccccc5n4c3=O)o2)c1 | 1020 nM
86 | CCCCCCCCCCCCCCCC[n+]1cccc2ccccc21 | 5340 nM
87 | COc1ccc(/C=C2/SC(=O)N(CCC(=O)Nc3ccc(S(=O)(=O)Nc4nccs4)cc3)C2=O)cc1 | 3810 nM
88 | C=CCN=c1scc(-c2ccco2)n1/N=C/c1ccc(O)c(O)c1O | > 54000 nM

Row | Structure (SMILES) | IC50
89 | O=C(O)c1ccc(-n2cccc2/C=N\NC(=O)c2cc3cc(Br)ccc3o2)cc1 | 915 nM
90 | O=C1NC(=S)S/C1=C\C=C\c1ccc([N+](=O)[O-])o1 | < 400 nM
91 | CN1CCC(N(C)c2nc(-c3ccc([N+](=O)[O-])cc3)nc3ccccc23)CC1 | < 400 nM
92 | O=C1N=c2ccc(Br)cc2=C1c1sc(=S)n(NS(=O)(=O)c2ccccc2)c1O | > 54000 nM
93 | O=C(O)c1cccc(-n2cccc2/C=C2/NC(=O)N(c3ccc(Cl)cc3)C2=O)c1 | < 400 nM
94 | O=C(O)c1ccc(N/N=C/c2ccc(-c3ccc(Cl)cc3Cl)o2)cc1 | 4360 nM
95 | C1=CC2c3ccccc3NC(c3ccncc3)C2C1 (configuration not stated) | 1810 nM
96 | CC(C)CNC(=O)c1c(N)n(Cc2ccco2)c2nc3ccccc3nc12 | > 54000 nM
97 | O=c1cc(-c2ccc([N+](=O)[O-])cc2)nc2cc(-c3ccc(Cl)cc3)[nH]n12 | 1630 nM
98 | CCOC(=O)c1[nH]c2c(c1C)C(=O)CC(c1ccco1)C2 (configuration not stated) | 5640 nM
99 | CN1c2ccccc2N(C)C1(C)c1ccccc1 | 1120 nM
100 | N[C@@H](Cc1cc(I)c(Oc2ccc(O)c(I)c2)c(I)c1)C(=O)O | < 400 nM
101 | CN(C)c1ccc(NC(=O)CN2C(=O)CN=C(c3ccccc3)c3cc(Cl)ccc32)cc1 | > 54000 nM
102 | CC1=NN(c2cccc(C(=O)O)c2)C(=O)/C1=C\C=C\c1ccco1 | 4500 nM
103 | O=C(O)CSc1cc(NS(=O)(=O)c2cccc([N+](=O)[O-])c2)c2ccccc2c1O | < 400 nM
104 | O=C(Nc1cccc(Cl)c1)Nc1nnc(-c2ccncc2)s1 | 4030 nM
105 | CN(CCC#N)C(=O)COC(=O)c1c2c(nc3ccccc13)/C(=C/c1ccco1)CC2 | 1630 nM
106 | Cc1ccc(S(=O)(=O)/N=C2/C=C(C3C(=O)CC(C)(C)CC3=O)C(=O)c3ccccc32)cc1 | 2870 nM
107 | O=C1CSC(=S)N1/N=C/c1ccc(O)c(O)c1O | < 400 nM
